The subject of data set [1] is HBV-transgenic mice (Strain HBV1.3.32). The conditions noted are these: mouse, in vivo.
For a further data set, the system named is HBVtg mice. The conditions noted are these: mouse, in vivo.
Data set [2] concerns HBV-transgenic mice (Strain HBV1.3.32). The format is in vivo, mouse.
The subject of data set [3] is chronic Hepatitis B virus (HBV)-infection. The following applies: cited from earlier work.
[4] abbreviates: middle and high antigenemic HBVtg mice, day 34.

Read-outs that look alike come from different tables or passages of the source.

For `Nc1ncnc2c1ncn2[C@@H]1O[C@@H]2COP(=O)(O)O[C@H]3[C@@H](O)[C@H](n4cnc5c(N)ncnc54)O[C@@H]3COP(=O)(O)O[C@H]2[C@H]1O` [c-di-AMP, bis-(3′,5′)-cyclic dimeric adenosine monophosphate], in data set [1], the “adjuvant efficacy for therapeutic protein prime-MVA boost vaccination” value is “potent adjuvant”; the “difference in magnitude of HBV-specific CD8+ T cell responses between c-di-AMP and CpG/PCEP regimens” value is “no statistically significant difference”; the “efficacy as adjuvant for therapeutic protein prime-MVA boost vaccination” value is “very potent adjuvant”; the “efficacy in i.m. versus s.c./i.p. application routes” value is given as “equally effective”. For the same compound, in the data set with HBVtg mice, the “liver damage / increase in ALT” value is given as “mild T-cell-induced liver damage”. Moreover, the “titers of anti-HBc antibodies, c-di-AMP compared to CpG/PCEP regimen” value in data set [2] (day 34, p<0.05) is given as “significantly higher titers”. In addition, in data set [2] (high antigenemic HBVtg mice, HBsAg+HBcAg prime twice, MVA-S/core boost day 28, day 34), the “impact on serum HBeAg levels” value is “Neither c-di-AMP nor CpG/PCEP immunization protocol had an impact”. Also, the “HBV replication, detected indirectly by HBeAg levels” value in data set [2] (i.m. route) is “lower HBV replication”. In data set [2] (setting [4]), the “HBsAg to anti-HBs seroconversion” value is recorded as “HBsAg to anti-HBs seroconversion in all examined HBVtg mice” and the anti-HBc responses entry was “significant anti-HBc responses”. For the same compound, the “HBV replication, detected indirectly by HBeAg levels” value in data set [2] (s.c./i.p. routes) is listed as “lower HBV replication”.
Regarding Interferon α, the “patients in whom therapy is curative” value in data set [3] is recorded as 15-20%.
